# Source: patent US20120029036A1, “PHARMACEUTICAL COMPOSITIONS COMPRISING PYRIDYL CYANOGUANIDINE, PROCESS FOR PREPARING THE SAME AND USE THEREOF” (Tianjin Michele Sci-Tech Development Co., Ltd., priority 2009, published 2012)
# Experiments:
# [1] = Determination of solubility in hydrochloric acid solution of pH 4.0 (saturated solution, HPLC); format: physicochemical; settings: ultrasonic 1 hour; for solubility at 1 h: aqueous buffer, thermodynamic from solid, read-out: Solubilities in hydrochloric acid of pH 4
# Experimental: 1.6 mg of compound 4 was weighed and dissolved in a mixed solution of 1 ml of methanol and 0.5 ml of DMSO to obtain a control solution. 7.66 mg of compound 4 was dissolved in hydrochloric acid solution of pH 4.0 and shaken in an ultrasonic device for 1 hour to prepare a saturated solution. The solubility of compound 4 in hydrochloric acid solution of pH 4.0 was determined by HPLC.
# The solubilities of compound 5 to compound 17 in hydrochloric acid solution were determined with the process for determining the solubility in Example 52.
# [2] = Solubilization of compound 1 with surfactants, solution placed for observation; format: physicochemical; settings: 12 hours
# Experimental: (§1) 2.5 mg of compound 1 was weighed and dissolved with 0.5 ml of 0.1N hydrochloric acid solution. 5% (V/V) of polysorbate 80 was added in the resultant solution. The pH of the solution was adjusted with 0.1N of sodium hydroxide to such an extent that precipitates were just to generate.
# 2.5 mg of compound 1 was weighed and dissolved with 0.5 ml of 0.1N hydrochloric acid solution. An amount of 0.1 N sodium hydroxide solution which is equal to that in Example 25 was added. Precipitates produced.
# as §1, with “2” for “2.5”, “polyethylene glycol-12-hydroxy stearate” for “polysorbate 80”
# 2 mg of compound 1 was weighed and dissolved with 0.5 ml of 0.1N hydrochloric acid solution. The pH was adjusted with an amount of 0.1 N sodium hydroxide solution which is equal to that in Example 27. Precipitates produced.
# 2 mg of compound 1 was weighed and dissolved with 0.5 ml of 0.1N hydrochloric acid solution. 5% (V/V) of polyoxyethylene castor oil was added in the resultant solution. The pH of the solution was adjusted with 0.1N of sodium hydroxide to such an extent that precipitates were just to generate.
# 2 mg of compound 1 was weighed and dissolved with 0.5 ml of 0.1N hydrochloric acid solution. The pH was adjusted with an amount of 0.1 N sodium hydroxide solution which is equal to that in Example 29. Precipitates produced.
# human tumour cells = settings: nude mice transplanted human tumour cells; cited from earlier work
# [3] = tested on: normal human endothelial cells; settings: in vitro; cited from earlier work
SMILES,Solubilities in hydrochloric acid of pH 4 [1] [mg/ml],solubility at 1 h [1] [µg/mL],further results
N#CNC(=Nc1ccncc1)NCCCCCCOc1ccc(F)cc1Cl [compound 7],0.09993,,
"CC(C)(C)OC(=O)NCCCCCCCCCCCCNC(=Nc1ccncc1)NC#N [compound 5, N-(12-(tert-butoxycarbonylamino)dodecyl)-N′-cyano-N″-(4-pyridyl)guanidine]",,0.92,
"N#CNC(=Nc1ccncc1)NCCCCCCOc1ccccc1Br [compound 8, N-cyano-N′-(6-(o-bromophenoxy)hexyl)-N″-(4-pyridyl)guanidine]",,205,
"N#CN=C(NCCCCCCCCCCCCNC(=NC#N)Nc1ccncc1)Nc1ccncc1 [compound 4, 1,12-bis(N′-cyano-N″-4-pyridylguanidine)dodecane]",0.00052,,
"N#CNC(=Nc1ccncc1)NCCCCCCOC(=O)c1ccc(Cl)cc1 [compound 6, N-(6-((4-chlorobenzoic acid)ester)hexyl)-N′-cyano-N″-(4-pyridyl)guanidine]",0.00225,,
"N#CNC(=Nc1ccncc1)NCCCCCCOc1ccc(Cl)cc1 [compound 1, N-cyano-N′-(6-(p-chlorophenoxy)hexyl)-N″-(4-pyridyl)guanidine]",,,"appearance of solution on standing ([2]; Example 25: 0.1N HCl, 5% (V/V) polysorbate 80, pH adjusted with 0.1N NaOH): solution kept clear for 12 hours; appearance of solution on standing ([2]; Example 26: control without polysorbate 80, same amount of NaOH): precipitates increased during 12 hours; appearance of solution on standing ([2]; Example 27: 0.1N HCl, 5% (V/V) polyethylene glycol-12-hydroxy stearate, pH adjusted with 0.1N NaOH): solution kept clear for 12 hours; appearance of solution on standing ([2]; Example 28: control without polyethylene glycol-12-hydroxy stearate, same amount of NaOH): precipitates increased during 12 hours; appearance of solution on standing ([2]; Example 29: 0.1N HCl, 5% (V/V) polyoxyethylene castor oil, pH adjusted with 0.1N NaOH): solution kept clear for 12 hours; appearance of solution on standing ([2]; Example 30: control without polyoxyethylene castor oil, same amount of NaOH): precipitates increased during 12 hours; antitumour activity (human tumour cells): potent antitumour activity; antiproliferative activity to normal human endothelial cells [3]: significantly lower antiproliferative activity"
"N#CNC(=Nc1ccncc1)NCCCCCCOc1c(Cl)cccc1Cl [compound 9, N-cyano-N′-(6-((2,6-dichlorophenyl)oxo)hexyl)-N″-(4-pyridyl)guanidine]",0.05331,,

# Second part, led by results:
Solubilities in hydrochloric acid of pH 4 [1] [mg/ml],solubility at 1 h [1] [µg/mL],SMILES,further results
0.1481,,"COc1ccccc1OCCCCCCCCNC(=Nc1ccncc1)NC#N [compound 14, N-cyano-N′-(8-((o-methoxyphenyl)oxo)octyl)-N″-(4-pyridyl)guanidine]",
,2.85,"N#CNC(=Nc1ccncc1)NCCCCCOc1ccccc1Cl [compound 11, N-cyano-N′-(5-(o-chlorophenoxy)pentyl)-N″-(4-pyridyl)guanidine]",
,3.72,"N#CNC(=Nc1ccncc1)NCCCCCCCOc1ccccc1Cl [compound 12, N-cyano-N′-(7-(o-chlorophenoxy)heptyl)-N″-(4-pyridyl)guanidine]",
0.00669,,"N#CNC(=Nc1ccncc1)NCCCCCCOc1c(Cl)cc(Cl)cc1Cl [compound 17, N-cyano-N′-(6-((2,4,6-trichlorophenyl)oxo)hexyl)-N″-(4-pyridyl)guanidine]",
0.01753,,N#CNC(=Nc1ccncc1)NCCCCCOc1c(Cl)cc(Cl)cc1Cl [compound 16],
,29.5,"N#CNC(=Nc1ccncc1)NCCCCCOc1ccc(Cl)cc1 [compound 13, N-cyano-N′-(5-(p-chlorophenoxy)pentyl)-N″-(4-pyridyl)guanidine]",
0.01965,,N#CNC(=Nc1ccncc1)NCCCCCCOc1ccccc1OC(F)(F)F [compound 10],
0.000829,,"N#CNC(=Nc1ccncc1)NCCCCCOc1ccc(Cl)cc1Cl [compound 15, N-cyano-N′-(5-((2,4-dichlorophenyl)oxo)pentyl)-N″-(4-pyridyl)guanidine]",
